# US11802285B2, “Cytotoxic T cell response modifiers” (DEUTSCHES KREBSFORSCHUNGSZENTRUM STIFTUNG DES ÖFFENTLICHEN …, priority 2013, dated 2023)
# Test system: MCF7 breast cancer cells
# Assay: Luc-CTL assay (luciferase-based readout of CTL-mediated tumor cell lysis, with viability control without CTLs)
# Details: for T cell mediated lysis of luciferase transfected MCF7 breast cancer target cells (reduction of luciferase activity): co-culture with survivin specific CTL clone, deconvoluted siRNA pool (FIG. 5A, 10A); for viability of luciferase transfected MCF7 breast cancer cells: in the absence of T cells (FIG. 5B, 10B)
# Description: In order to comprehensively identify immune checkpoint regulators in an unbiased manner, we harnessed a previously described approach to measure tumor-specific T-cell cytotoxicity which is based on quantifying residual cell-associated luciferase expression following exposure of Luc-expressing cancer cells with CTLs (Brown et al., 2005). We adapted and extended aforementioned approach for high-throughput RNAi screening purposes and termed it ‘Luc-CTL’ assay. Briefly, the screening experiment was set up as follows: In total, three RNAi screens were performed in duplicate and reverse transfection of cells with siRNA pools was performed by delivering 15 μl of RPMI (Invitrogen) containing 0.05 μl of RNAiMAX (Invitrogen). After 30 min of incubation at room temperature, 3000 MCF7 cells (screen 1: MCF7 stably expressing luciferase, screen 2 and 3: wild-type MCF7 cells) in 30 μl of DMEM medium (Invitrogen) supplemented with 10% FBS (Invitrogen) were added to the siRNA transfection mix. Plates were then incubated at 37° C., 5% CO2. 24 h later, cells were either transiently transfected with a luciferase expression plasmid (screen 2) using TransIT-LT1 transfection reagent (Mirius Bio LLC, Madison, USA) according to the manufacturer's instructions or not (screen 1 and screen 3). 72 h post siRNA transfection cancer cells were either challenged with CTLs and anti-CD3×anti-EpCAM bi-specific antibody (screen 1 and screen 2; condition with addition of CTLs) or not (screen 1 and screen 2; condition without addition of CTLs and screen 3). […]
# Plate reader data from RNAi screens were statistically analyzed using the cellHTS2 package in R/Bioconductor (Boutros et al., 2006). […] For screen 1 and screen 2, scores from both conditions, i.e. addition of CTLs and without addition of CTLs, were further quantile normalized against each other using the aroma.light package in R. Differential scores were calculated by subtracting quantile normalized scores without addition of CTLs from scores derived with addition of CTLs. In order to robustly identify genes that positively modulate CTL mediated cytotoxicity and to avoid biases potentially introduced by employing CTLs from different donors and employing genetically engineered as well as unmodified MCF7 cells, the 150 top-ranking genes as evaluated by the differential score were extracted for the independent screens 1 and 2 and the overlap between candidate lists was determined. […] Thereby, siRNAs generally affecting cell viability, as determined by intracellular ATP levels, could be excluded.
# In order to identify tumor-associated genes that inhibit cell killing by cytotoxic T lymphocytes (CTL), we adapted a luciferase-based readout assay, henceforth referred to as Luc-CTL assay (FIG. 1A). […]
Substance,T cell mediated lysis of luciferase transfected MCF7 breast cancer target cells (reduction of luciferase activity),viability of luciferase transfected MCF7 breast cancer cells
"TAS2R3 siRNA s4: TAS2R3 siRNA, sequence GCAGACAUUUGUAGUGAUG, SEQ ID NO: 4 (listed as RNA, chemistry not given here)",significantly increase,no impact
"TAS2R3 siRNA s3: TAS2R3 siRNA, sequence CCGCAUCUCUGAUCAAUGA, SEQ ID NO: 3 (listed as RNA, chemistry not given here)",significantly increase,no impact
